Measured values from patent US20200163984A1, “USE OF ISOVALERYL SPIRAMYCIN I, II AND/OR III IN MANUFACTURING MEDICAMENT FOR TREATING AND/OR PREVENTING TUMOR, AND MEDICAMENT” (SHENYANG FUYANG PHARMACEUTICAL TECHNOLOGY CO., LTD., priority 2017, published 2020).
Where two headings read alike, the source gives them in different places.

Tests used:
[1] = system: transplanted tumor of human non-small cell lung cancer cell H1299
Method: (§1) Then cell concentration was adjusted to 1×10^7/ml with matrigel, then each nude mouse was inoculated subcutaneously with 0.2 ml of cells at its right armpit and recorded as the first day of inoculation. When the tumor grows to be greater than or equal to 100 mm^3, the mice were randomly divided into 11 groups with 6 mice in each group: isovaleryl spiramycin I groups with doses of 25, 50 and 100 mg/kg, isovaleryl spiramycin II groups with doses of 25, 50 and 100 mg/kg, and isovaleryl spiramycin III groups with doses of 25, 50 and 100 mg/kg. Each group was continuously administered intragastrically for 30 days with a dose of 20 ml/kg. The mice were sacrificed the next day after drug withdrawal and the indicators were tested. The long diameter and short diameter of the tumor, and the body weight of each mouse were recorded every 3 days from drug administration to nude mouse sacrifice.
(§2) The body weight of the nude mice and the long diameter (a) and short diameter (b) of the transplanted tumor were measured every 3 days, and the tumor volume (v), relative tumor volume (RTV) and relative tumor proliferation rate (T/C) are calculated respectively according to the following formulas, wherein V=a×b^2/2; RTV=V/V0 (V0 is the tumor volume before administration, V is the tumor volume before sacrifice), and T/C (%)=treatment group RTV/model control group RTV×100%.
(§3) Each mouse was weighed and sacrificed. After the tumor was completely stripped off from the body of the mouse, the non-tumor tissues such as blood stains and fat were removed to weigh the tumor and calculate the tumor growth inhibition rate. The average tumor weight of each group of mice is used as an indicator of efficacy. Tumor growth inhibition rate (%)=(1−the average tumor weight of the treatment group/the average tumor weight of the model group)×100%.

[2] = system: transplanted tumor of human gastric adenocarcinoma cell SGC7901; experiment: SGC7901 transplanted tumor in nude mice
Method: as §1, with “group: a model group, a cyclophosphamide group,” for “group:”
as §2, §3

[3] = system: transplanted tumor of human pancreatic cancer cell PANC-1; experiment: PANC-1 transplanted tumor in nude mice; conditions: for Tumor Volume (mm3) (d 1): d1
Method: as §1, with “group: a model group, a cyclophosphamide group,” for “group:”
as §2, §3

[4] = Thymus index and spleen index of Lewis lung cancer tumor-bearing mice; conditions: n = 6
Method: In the Lewis lung cancer model, the mice inoculated with the tumor were randomly divided into groups with 10 mice in each group the next day of inoculation. The groups included: a model control group, a positive drug cyclophosphamide control group (CTX, 30 mg/kg), isovaleryl spiramycin I groups with doses of 13, 26 and 52 mg/kg; isovaleryl spiramycin II groups with doses of 13, 26 and 52 mg/kg; isovaleryl spiramycin III groups with doses of 13, 26 and 52 mg/kg. Each group was continuously administered intragastrically for 15 days with a dose of 20 ml/kg.

[5] = Spleen index of A549 lung cancer tumor-bearing mice; conditions: n = 6
[6] = H1299, 25 mg/kg (low dose) i.g. 30 days
[7] = H1299, 50 mg/kg (medium dose) i.g. 30 days
[8] = H1299, 100 mg/kg (high dose) i.g. 30 days
[9] = SGC7901, 12.5 mg/kg (low dose) i.g. 30 days
[10] = SGC7901, 25 mg/kg (medium dose) i.g. 30 days
[11] = SGC7901, 50 mg/kg (high dose) i.g. 30 days
[12] = PANC-1, 12.5 mg/kg (low dose) i.g. 30 days
[13] = PANC-1, 25 mg/kg (medium dose) i.g. 30 days
[14] = PANC-1, 50 mg/kg (high dose) i.g. 30 days

**Q.** Which results are given for `COC1C(OC(C)=O)CC(=O)OC(C)CC=CC=CC(OC2CCC(N(C)C)C(C)O2)C(C)CC(CC=O)C1OC1OC(C)C(OC2CC(C)(O)C(OC(=O)CC(C)C)C(C)O2)C(N(C)C)C1O` (stereo not drawn) [Isovaleryl spiramycin II, isovaleryl spiramycin II]?
**A.** Inhibition Rate (tumor growth inhibition rate) [1, 6]: 17.32%; Relative Tumor Proliferation Rate (T/C) [1, 6]: 83.01%; Relative Tumor Volume (RTV) [1, 6]: 10.64 ± 0.92; Tumor Volume (d 1) [1, 6]: 139.13 ± 12.26 mm3; Tumor Volume (d 30) [1, 6]: 1474.57 ± 104.54 mm3; Tumor Weight [1, 6]: 1.44 ± 0.29 g; Inhibition Rate (tumor growth inhibition rate) [1, 7]: 44.21%; Relative Tumor Proliferation Rate (T/C) [1, 7]: 46.94%; Relative Tumor Volume (RTV) [1, 7]: 6.02 ± 1.07; Tumor Volume (d 1) [1, 7]: 138.94 ± 20.16 mm3; Tumor Volume (d 30) [1, 7]: 821.57 ± 90.36 mm3; Tumor Weight [1, 7]: 0.97 ± 0.16 g; Inhibition Rate (tumor growth inhibition rate) [1, 8]: 58.37%; Relative Tumor Proliferation Rate (T/C) [1, 8]: 36.86%; Relative Tumor Volume (RTV) [1, 8]: 4.72 ± 1.57; Tumor Volume (d 1) [1, 8]: 136.94 ± 14.60 mm3; Tumor Volume (d 30) [1, 8]: 634.05 ± 180.18 mm3; Tumor Weight [1, 8]: 0.73 ± 0.25 g; tumor volume and relative tumor volume compared with the model group ([1]; H1299, low, medium and high doses, P<0.05): significantly lower; mouse weight compared with the model group ([1]; mouse, in vivo): no significant changes; Inhibition Rate (tumor growth inhibition rate) [2, 9]: 24.44%; Relative Tumor Proliferation Rate (T/C) [2, 9]: 70.48%; Relative Tumor Volume (RTV) [2, 9]: 7.90 ± 6.97; Tumor Volume (d 1) [2, 9]: 134.33 ± 57.77 mm3; Tumor Volume (d 30) [2, 9]: 1029.72 ± 818.01 mm3; Tumor Weight [2, 9]: 1.19 ± 0.62 g; Inhibition Rate (tumor growth inhibition rate) [2, 10]: 41.76%; Relative Tumor Proliferation Rate (T/C) [2, 10]: 51.42%; Relative Tumor Volume (RTV) [2, 10]: 6.88 ± 5.66; Tumor Volume (d 1) [2, 10]: 195.76 ± 76.95 mm3; Tumor Volume (d 30) [2, 10]: 1094.82 ± 687.01 mm3; Tumor Weight [2, 10]: 0.91 ± 0.53 g; Inhibition Rate (tumor growth inhibition rate) [2, 11]: 70.24%; Relative Tumor Proliferation Rate (T/C) [2, 11]: 36.95%; Relative Tumor Volume (RTV) [2, 11]: 6.90 ± 7.37; Tumor Volume (d 1) [2, 11]: 143.85 ± 16.25 mm3; Tumor Volume (d 30) [2, 11]: 577.98 ± 411.47 mm3; Tumor Weight [2, 11]: 0.47 ± 0.42 g; tumor volume and relative tumor volume compared with the model group ([2]; SGC7901, low, medium and high doses, P<0.05): significantly lower; mouse weight compared with the model group ([2]; mouse, in vivo): no significant changes; Inhibition Rate (tumor growth inhibition rate) [3, 12]: 20.55%; Tumor Weight [3, 12]: 2.16 ± 0.51 g; Inhibition Rate (tumor growth inhibition rate) [3, 13]: 41.72%; Tumor Weight [3, 13]: 1.58 ± 0.51 g; Inhibition Rate (tumor growth inhibition rate) [3, 14]: 56.81%; Tumor Weight [3, 14]: 1.17 ± 0.47 g; Relative Tumor Proliferation Rate (T/C) ([3]; PANC-1, high dose i.g. 30 days): 44.44%; Relative Tumor Proliferation Rate (T/C) ([3]; PANC-1, low dose i.g. 30 days): 79.23%; tumor volume and relative tumor volume compared with the model group ([3]; PANC-1, low, medium and high doses, P<0.05): significantly lower; Relative Tumor Proliferation Rate (T/C) ([3]; PANC-1, medium dose i.g. 30 days): 60.58%; Relative Tumor Proliferation Rate (T/C) ([3]; PANC-1 nude mice, 12.5 mg/kg): 79.23%; Relative Tumor Volume (RTV) ([3]; PANC-1 nude mice, 12.5 mg/kg): 13.87 ± 1.53; Tumor Volume (mm3) (d 1) ([3]; PANC-1 nude mice, 12.5 mg/kg): 104.64 ± 10.69 mm3; Tumor Volume (mm3) (d30) ([3]; PANC-1 nude mice, 12.5 mg/kg): 1450.36 ± 218.20 mm3; Relative Tumor Proliferation Rate (T/C) ([3]; PANC-1 nude mice, 25 mg/kg): 60.58%; Relative Tumor Volume (RTV) ([3]; PANC-1 nude mice, 25 mg/kg): 10.60 ± 1.10; Tumor Volume (mm3) (d 1) ([3]; PANC-1 nude mice, 25 mg/kg): 105.81 ± 11.20 mm3; Tumor Volume (mm3) (d30) ([3]; PANC-1 nude mice, 25 mg/kg): 1113.42 ± 71.14 mm3; Relative Tumor Proliferation Rate (T/C) ([3]; PANC-1 nude mice, 50 mg/kg): 44.45%; Relative Tumor Volume (RTV) ([3]; PANC-1 nude mice, 50 mg/kg): 7.78 ± 1.71; Tumor Volume (mm3) (d 1) ([3]; PANC-1 nude mice, 50 mg/kg): 119.69 ± 14.63 mm3; Tumor Volume (mm3) (d30) ([3]; PANC-1 nude mice, 50 mg/kg): 914.69 ± 130.26 mm3; mouse weight compared with the model group ([3]; mouse, in vivo): no significant changes; Spleen Index (%) ([4]; dose 13 mg/kg): 0.75 ± 0.24%; Thymus Index (%) ([4]; dose 13 mg/kg): 0.12 ± 0.08%; Spleen Index (%) ([4]; dose 26 mg/kg): 0.68 ± 0.21%; Thymus Index (%) ([4]; dose 26 mg/kg): 0.14 ± 0.02%; Spleen Index (%) ([4]; dose 52 mg/kg): 0.66 ± 0.17%; Thymus Index (%) ([4]; dose 52 mg/kg): 0.15 ± 0.09%; Spleen Index (%) ([5]; dose 13 mg/kg): 0.35 ± 0.06%; Spleen Index (%) ([5]; dose 26 mg/kg): 0.32 ± 0.09%; Spleen Index (%) ([5]; dose 52 mg/kg): 0.37 ± 0.06%
